Experimental data published in US20210070748A1, “INHIBITORS OF BRUTONS TYROSINE KINASE” (Pharmacyclics LLC, priority 2015, published 2021).
Where two headings read alike, the source gives them in different places.

Assays:
Format in all cases: biochemical
BTK-WT = target: T1, BTK-WT (Homo sapiens, UniProt Q06187); test: Btk in vitro inhibitory activity (one of Method A TR-FRET, Method B electrophoretic mobility shift, Method C radiometric filter binding); details: read-out: IC50 BTK-WT
T1 construct: purified from insect cells as a full-length construct containing an N-terminal 6X-His tag; His6 (N); made in house; host or cells: insect cells (baculovirus Sf21 in Method B)
T1 sequence (Q06187 whole entry): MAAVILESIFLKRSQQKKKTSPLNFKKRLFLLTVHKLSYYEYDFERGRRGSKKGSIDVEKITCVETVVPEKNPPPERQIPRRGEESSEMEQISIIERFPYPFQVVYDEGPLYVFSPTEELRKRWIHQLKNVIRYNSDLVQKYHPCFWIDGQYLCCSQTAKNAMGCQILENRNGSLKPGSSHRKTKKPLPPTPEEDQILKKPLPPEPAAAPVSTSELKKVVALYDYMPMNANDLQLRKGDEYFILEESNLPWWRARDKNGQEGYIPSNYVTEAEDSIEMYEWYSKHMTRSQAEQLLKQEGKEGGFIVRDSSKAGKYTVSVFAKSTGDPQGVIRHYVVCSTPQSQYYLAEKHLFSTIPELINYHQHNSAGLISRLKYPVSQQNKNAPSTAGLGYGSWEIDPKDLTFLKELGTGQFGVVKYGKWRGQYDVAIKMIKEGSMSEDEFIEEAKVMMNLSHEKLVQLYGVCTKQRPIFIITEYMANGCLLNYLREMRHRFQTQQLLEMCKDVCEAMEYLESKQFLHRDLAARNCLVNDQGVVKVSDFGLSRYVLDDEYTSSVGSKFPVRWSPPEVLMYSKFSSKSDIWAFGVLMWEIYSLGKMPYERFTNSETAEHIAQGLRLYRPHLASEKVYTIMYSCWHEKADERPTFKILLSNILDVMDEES

JAK3 = target: T2, JAK3 (Homo sapiens, UniProt P52333); test: Inhibition of a panel of kinases, in vitro HotSpot kinase assay: JAK3; details: read-out: IC50 JAK3
T2 sequence (P52333 1-1124): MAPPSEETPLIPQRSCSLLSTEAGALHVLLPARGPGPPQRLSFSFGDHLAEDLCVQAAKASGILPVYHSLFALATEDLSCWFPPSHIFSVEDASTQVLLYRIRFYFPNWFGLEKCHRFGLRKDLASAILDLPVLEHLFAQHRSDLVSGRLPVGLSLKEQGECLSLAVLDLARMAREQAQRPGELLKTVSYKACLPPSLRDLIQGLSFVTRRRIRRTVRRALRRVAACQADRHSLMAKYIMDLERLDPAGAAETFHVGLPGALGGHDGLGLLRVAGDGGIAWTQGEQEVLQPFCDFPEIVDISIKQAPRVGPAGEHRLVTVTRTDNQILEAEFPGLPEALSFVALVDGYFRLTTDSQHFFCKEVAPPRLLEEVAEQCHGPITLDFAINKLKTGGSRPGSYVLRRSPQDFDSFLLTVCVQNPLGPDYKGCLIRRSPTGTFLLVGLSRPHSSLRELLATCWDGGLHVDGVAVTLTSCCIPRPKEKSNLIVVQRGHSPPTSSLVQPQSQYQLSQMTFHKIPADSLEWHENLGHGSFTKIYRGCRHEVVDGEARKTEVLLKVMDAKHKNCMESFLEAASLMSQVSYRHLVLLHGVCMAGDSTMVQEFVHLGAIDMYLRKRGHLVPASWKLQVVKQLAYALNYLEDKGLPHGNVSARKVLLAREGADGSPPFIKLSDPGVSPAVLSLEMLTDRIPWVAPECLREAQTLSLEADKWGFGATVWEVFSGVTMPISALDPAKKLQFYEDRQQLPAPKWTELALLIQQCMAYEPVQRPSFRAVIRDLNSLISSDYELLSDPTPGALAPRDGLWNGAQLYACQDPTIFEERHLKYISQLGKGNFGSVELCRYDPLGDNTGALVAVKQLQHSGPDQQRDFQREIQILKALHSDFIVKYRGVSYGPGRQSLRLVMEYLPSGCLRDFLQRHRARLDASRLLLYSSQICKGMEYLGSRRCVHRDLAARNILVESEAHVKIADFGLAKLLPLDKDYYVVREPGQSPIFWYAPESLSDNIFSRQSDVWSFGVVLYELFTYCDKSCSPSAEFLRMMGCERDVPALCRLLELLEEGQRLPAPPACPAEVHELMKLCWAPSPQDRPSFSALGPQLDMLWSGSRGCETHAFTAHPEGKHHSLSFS

LCK = LCK (Homo sapiens, UniProt P06239); test: Inhibition of a panel of kinases, in vitro HotSpot kinase assay: LCK; details: read-out: IC50 LCK
Sequence of LCK (P06239 whole entry): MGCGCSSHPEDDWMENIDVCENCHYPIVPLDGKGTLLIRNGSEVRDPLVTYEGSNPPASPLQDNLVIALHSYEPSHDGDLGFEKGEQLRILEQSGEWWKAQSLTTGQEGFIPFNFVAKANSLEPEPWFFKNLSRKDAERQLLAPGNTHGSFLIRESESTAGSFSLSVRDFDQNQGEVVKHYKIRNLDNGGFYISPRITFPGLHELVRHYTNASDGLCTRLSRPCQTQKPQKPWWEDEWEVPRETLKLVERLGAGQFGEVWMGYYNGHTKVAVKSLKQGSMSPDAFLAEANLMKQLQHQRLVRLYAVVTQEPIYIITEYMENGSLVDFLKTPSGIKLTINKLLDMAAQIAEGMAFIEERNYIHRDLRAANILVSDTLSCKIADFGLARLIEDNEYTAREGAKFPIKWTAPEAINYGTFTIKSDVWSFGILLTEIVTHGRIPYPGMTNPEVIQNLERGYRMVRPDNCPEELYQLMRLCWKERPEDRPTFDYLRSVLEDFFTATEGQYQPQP

EGFR = EGFR (Homo sapiens, UniProt P00533); test: Inhibition of a panel of kinases, in vitro HotSpot kinase assay: EGFR
Sequence of EGFR (P00533 25-1210): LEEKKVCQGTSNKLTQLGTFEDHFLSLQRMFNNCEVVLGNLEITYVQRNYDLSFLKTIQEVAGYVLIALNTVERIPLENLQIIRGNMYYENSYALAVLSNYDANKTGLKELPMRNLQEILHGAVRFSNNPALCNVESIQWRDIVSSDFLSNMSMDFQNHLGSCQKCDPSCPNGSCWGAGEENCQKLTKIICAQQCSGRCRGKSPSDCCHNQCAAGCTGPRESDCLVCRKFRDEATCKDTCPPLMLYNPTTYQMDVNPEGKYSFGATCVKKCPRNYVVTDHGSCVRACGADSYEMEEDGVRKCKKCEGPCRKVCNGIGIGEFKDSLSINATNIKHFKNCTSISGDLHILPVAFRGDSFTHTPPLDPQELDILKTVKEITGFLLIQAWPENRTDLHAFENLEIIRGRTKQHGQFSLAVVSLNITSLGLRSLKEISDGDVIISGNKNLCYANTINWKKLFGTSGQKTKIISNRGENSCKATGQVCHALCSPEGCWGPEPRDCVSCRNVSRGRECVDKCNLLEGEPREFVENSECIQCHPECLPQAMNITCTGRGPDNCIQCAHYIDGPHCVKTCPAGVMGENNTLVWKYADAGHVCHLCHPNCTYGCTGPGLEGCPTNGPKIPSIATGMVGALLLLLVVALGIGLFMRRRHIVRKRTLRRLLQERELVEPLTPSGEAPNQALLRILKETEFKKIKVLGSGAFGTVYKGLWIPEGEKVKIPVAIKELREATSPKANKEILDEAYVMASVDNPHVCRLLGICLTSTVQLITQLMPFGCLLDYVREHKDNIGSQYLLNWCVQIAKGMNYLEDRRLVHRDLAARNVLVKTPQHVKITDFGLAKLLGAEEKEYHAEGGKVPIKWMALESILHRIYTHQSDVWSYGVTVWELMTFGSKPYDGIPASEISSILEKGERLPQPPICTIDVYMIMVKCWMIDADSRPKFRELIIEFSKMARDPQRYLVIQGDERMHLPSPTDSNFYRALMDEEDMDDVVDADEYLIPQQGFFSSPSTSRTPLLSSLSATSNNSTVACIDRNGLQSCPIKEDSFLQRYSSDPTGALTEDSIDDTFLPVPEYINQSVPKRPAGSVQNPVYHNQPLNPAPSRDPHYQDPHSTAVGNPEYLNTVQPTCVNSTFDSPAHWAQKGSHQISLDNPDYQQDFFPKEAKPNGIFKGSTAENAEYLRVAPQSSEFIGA
Procedure: (§1) The degree of inhibition of a panel of kinases is determined using the in vitro HotSpot kinase assay (purified enzymes, ^33P-ATP, an appropriate substrate and 1 μM ATP).

SRC = SRC (Homo sapiens, UniProt P12931); test: Inhibition of a panel of kinases, in vitro HotSpot kinase assay: SRC
Sequence of SRC (P12931 whole entry): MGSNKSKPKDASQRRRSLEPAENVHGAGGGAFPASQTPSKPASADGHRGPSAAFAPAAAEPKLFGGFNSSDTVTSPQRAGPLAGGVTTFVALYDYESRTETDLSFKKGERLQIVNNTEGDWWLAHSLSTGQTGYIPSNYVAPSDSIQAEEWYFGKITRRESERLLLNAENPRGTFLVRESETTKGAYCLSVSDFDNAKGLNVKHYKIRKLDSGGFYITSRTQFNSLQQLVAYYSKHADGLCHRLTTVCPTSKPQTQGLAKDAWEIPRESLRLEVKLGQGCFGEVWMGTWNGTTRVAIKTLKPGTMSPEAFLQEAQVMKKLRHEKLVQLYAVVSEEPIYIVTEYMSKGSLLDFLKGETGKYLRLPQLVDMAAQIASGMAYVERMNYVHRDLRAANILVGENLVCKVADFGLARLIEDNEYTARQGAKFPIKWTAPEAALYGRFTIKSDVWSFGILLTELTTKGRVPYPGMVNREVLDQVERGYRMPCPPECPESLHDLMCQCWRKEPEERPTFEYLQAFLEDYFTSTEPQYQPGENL
Procedure: as §1

[1] = D-compounds panel data, 1 μM ATP

Compound	IC50 (BTK-WT; D-compounds panel data) [nM]	IC50 (JAK3; [1]) [nM]	IC50 (LCK; [1]) [nM]	IC50 (EGFR; [1]) [nM]	IC50 (SRC; [1]) [nM]	IC50 (BTK-WT; E compounds, Table 17) [nM]	IC50 (JAK3; E compounds, Table 17) [nM]	IC50 (LCK; E compounds, Table 17) [nM]	IC50 (EGFR; E compounds, Table 17) [nM]	IC50 (SRC; E compounds, Table 17) [nM]
C=CC(=O)N1CC[C@@H](N(C)c2cnc(C(N)=O)c(Nc3ccc(C4(C)CCN(C5CC5)CC4)cc3)n2)C1 [Example E-104, (R)-5-((1-acryloylpyrrolidin-3-yl)(methyl)amino)-3-(4-(1-cyclopropyl-4-methylpiperidin-4-yl)phenylammo)pyrazine-2-carboxamide]						≤ 10	< 10	10 to 100	≤ 10	10 to 100
C[C@@H]1[C@H](NC(=O)N(C)C)CCCN1c1cnc(C(N)=O)c(Nc2ccc(OC3CCN(C)CC3)cc2)n1 [Example D-33, 5-[(2R,3R)-3-[(dimethylcarbamoyl)amino]-2-methylpiperidin-1-yl]-3-({4-[(1-methylpiperidin-4-yl)oxy]phenyl}amino)pyrazine-2-carboxamide]	≤ 10	1000 to 10000	10 to 100	100 to 1000	10 to 100					
CN(C)C(=O)N[C@H]1CCCN(c2cnc(C(N)=O)c(Nc3ccc(C4(C)CCN(C5CCCC5)CC4)cc3)n2)[C@H]1CO [Example D-59, 3-{[4-(1-cyclopentyl-4-methylpiperidin-4-yl)phenyl]amino}-5-[(2R,3S)-3-[(dimethylcarbamoyl)amino]-2-(hydroxymethyl)piperidin-1-yl]pyrazine-2-carboxamide]	100 to 1000	> 10000	1000 to 10000	1000 to 10000	1000 to 10000					
Cc1cc(Nc2nc(N3CCC[C@H](NC(=O)N(C)C)[C@@H]3CO)cnc2C(N)=O)sn1 [Example D-68, 5-[(2R,3S)-3-[(dimethylcarbamoyl)amino]-2-(hydroxymethyl)piperidin-1-yl]-3-[(3-methyl-1,2-thiazol-5-yl)amino]pyrazine-2-carboxamide]	1000 to 10000	1000 to 10000	> 10000	> 10000	1000 to 10000					
CN1CCN(C(=O)c2ccc(Nc3nc(N[C@H]4CC[C@H](NC(=O)c5ccc(C6CC6)cc5F)CC4)cnc3C(N)=O)cc2)CC1 [Example D-70, 3-{[4-(4-methylpiperazine-1-carbonyl)phenyl]amino}-5-{[(1 r,4r)-4-(4-cyclopropyl-2-fluorobenzamido)cyclohexyl]amino}pyrazine-2-carboxamide]	10 to 100	100 to 1000	100 to 1000	100 to 1000	100 to 1000					
CN1CCN(C(=O)c2ccc(Nc3nc(N[C@H]4CC[C@H](NC(=O)N(C)C)CC4)cnc3C(N)=O)cc2)CC1 [Example D-69, 3-{[4-(4-methylpiperazine-1-carbonyl)phenyl]amino}-5-{[(1 r,4r)-4-[(dimethylcarbamoyl)amino]cyclohexyl]amino}pyrazine-2-carboxamide]	10 to 100	100 to 1000	10 to 100	100 to 1000	100 to 1000					
CN(C)C(=O)N[C@@H]1CCCN(c2cnc(C(N)=O)c(Nc3ccc(C4(C)CCN(C5CCCC5)CC4)cc3)n2)[C@@H]1CO [Example D-58, 3-{[4-(1-cyclopentyl-4-methylpiperidin-4-yl)phenyl]amino}-5-[(2S,3R)-3-[(dimethylcarbamoyl)amino]-2-(hydroxymethyl)piperidin-1-yl]pyrazine-2-carboxamide]	≤ 10	1000 to 10000	100 to 1000	100 to 1000	100 to 1000					
C[C@@H]1[C@H](NC(=O)c2ccc(C3CC3)cc2F)CCCN1c1cnc(C(N)=O)c(Nc2ccc(C3(C)CCN(C4CCCC4)CC3)cc2)n1 [Example D-66, 3-{[4-(1-cyclopentyl-4-methylpiperidin-4-yl)phenyl]amino}-5-[(2R,3R)-3-(4-cyclopropyl-2-fluorobenzamido)-2-methylpiperidin-1-yl]pyrazine-2-carboxamide]	≤ 10	100 to 1000	< 10	10 to 100	≤ 10					
C=CC(=O)N1CCC[C@@H](Nc2cnc(C(N)=O)c(Nc3ccc(C4CCN(C5CCCC5)CC4)cc3)n2)C1 [Example E-108, (R)-5-(1-acryloylpiperidin-3-ylamino)-3-(4-(1-cyclopentylpiperidin-4-yl)phenylamino)pyrazine-2-carboxamide]						≤ 10	< 10	10 to 100	≤ 10	10 to 100

Now from value to compound, other results behind:

IC50 (BTK-WT; D-compounds panel data) [nM]	IC50 (JAK3; [1]) [nM]	IC50 (LCK; [1]) [nM]	IC50 (EGFR; [1]) [nM]	IC50 (SRC; [1]) [nM]	Compound	IC50 (BTK-WT; E compounds, Table 17) [nM]	IC50 (JAK3; E compounds, Table 17) [nM]	IC50 (LCK; E compounds, Table 17) [nM]	IC50 (EGFR; E compounds, Table 17) [nM]	IC50 (SRC; E compounds, Table 17) [nM]
≤ 10	1000 to 10000	10 to 100	100 to 1000	10 to 100	C[C@@H]1[C@H](NC(=O)c2ccc(C3CC3)cc2)CCCN1c1cnc(C(N)=O)c(Nc2ccc(N3CCC(C(=O)N(C)C)CC3)cc2)n1 [Example D-320, 5-[(2R,3R)-3-(4-cyclopropylbenzamido)-2-methylpiperidin-1-yl]-3-({4-[4-(dimethylcarbamoyl)piperidin-1-yl]phenyl}amino)pyrazine-2-carboxamide]					
≤ 10	1000 to 10000	> 10000	> 10000	> 10000	C[C@@H]1[C@H](NC(=O)c2ccc(C3CC3)cc2)CCCN1c1cnc(C(N)=O)c(Nc2ccc(C3CCOCC3)cc2)n1 [Example D-317, 5-[(2R,3R)-3-(4-cyclopropylbenzamido)-2-methylpiperidin-1-yl]-3-{[4-(oxan-4-yl)phenyl]amino}pyrazine-2-carboxamide]					
≤ 10	100 to 1000	100 to 1000	100 to 1000	100 to 1000	C[C@@H]1[C@H](N2Cc3cc(C4CC4)ccc3C2=O)CCCN1c1cnc(C(N)=O)c(Nc2cnn(C)c2)n1 [Example D-36, 5-[(2R,3R)-3-(5-cyclopropyl-1-oxo-2,3-dihydro-1H-isoindol-2-yl)-2-methylpiperidin-1-yl]-3-[(1-methyl-1H-pyrazol-4-yl)amino]pyrazine-2-carboxamide]					
100 to 1000	> 10000	> 10000	> 10000	1000 to 10000	Cn1cc(Nc2nc(N3CCC(NC(=O)c4ccc(C5CC5)cc4)C(O)C3)cnc2C(N)=O)cn1 (single isomer, unassigned) [Example D-29, Trans-5-[4-(4-cyclopropylbenzamido)-3-hydroxypiperidin-1-yl]-3-[(1-methyl-1H-pyrazol-4-yl)amino]pyrazine-2-carboxamide]					
≤ 10	1000 to 10000	100 to 1000	1000 to 10000	10 to 100	C[C@@H]1[C@H](NC(=O)c2ccc(C(C)(C)C#N)cc2)CCCN1c1cnc(C(N)=O)c(Nc2cnn(C)c2)n1 [Example D-88, 5-[(2R,3R)-3-[4-(1-cyano-1-methylethyl)benzamido]-2-methylpiperidin-1-yl]-3-[(1-methyl-1H-pyrazol-4-yl)amino]pyrazine-2-carboxamide]					
100 to 1000	1000 to 10000	1000 to 10000	1000 to 10000	1000 to 10000	Cc1cc(Nc2nc(N3C[C@H](NC(=O)c4ccc(C5CC5)cc4F)CC[C@H]3C)cnc2C(N)=O)sn1 [Example D-79, 5-[(2R,5R)-5-(4-cyclopropyl-2-fluorobenzamido)-2-methylpiperidin-1-yl]-3-[(3-methyl-1,2-thiazol-5-yl)amino]pyrazine-2-carboxamide]					
1000 to 10000	> 10000	> 10000	> 10000	1000 to 10000	Cn1cc(Nc2nc(N3CCC[C@H]4[C@@H]3CCCN4C(=O)c3ccc(C4CC4)cc3)cnc2C(N)=O)cn1 [Example D-47, 5-[(4aS,8aS)-5-(4-cyclopropylbenzoyl)-decahydro-1,5-naphthyridin-1-yl]-3-[(1-methyl-1H-pyrazol-4-yl)amino]pyrazine-2-carboxamide]					
